Measured values taken from the supplement of paper PMC9663587.

Tests used:
[1] = compound: CCc1cnn2c(NCc3ccc[n+]([O-])c3)cc(N3CCCC[C@H]3CCO)nc12
LEE011/Ribociclib [2] = compound: T1, CN(C)C(=O)c1cc2cnc(Nc3ccc(N4CCNCC4)cn3)nc2n1C1CCCC1 [LEE011/Ribociclib]
Doxorubicin = compound: COc1cccc2c1C(=O)c1c(O)c3c(c(O)c1C2=O)C[C@@](O)(C(=O)CO)C[C@@H]3O[C@H]1C[C@H](N)[C@H](O)[C@H](C)O1 [Doxorubicin]
Pictilisib/GDC0941 = compound: CS(=O)(=O)N1CCN(Cc2cc3nc(-c4cccc5[nH]ncc45)nc(N4CCOCC4)c3s2)CC1 [Pictilisib/GDC0941]
Ceritinib/LDK378 = compound: Cc1cc(Nc2ncc(Cl)c(Nc3ccccc3S(=O)(=O)C(C)C)n2)c(OC(C)C)cc1C1CCNCC1 [Ceritinib/LDK378]
[3] = compound: Cc1nn(C)c(COc2ccc(N3CCN(S(=O)(=O)N(C)C)CC3)cc2)c1-c1cccc2c(CCCOc3cccc4ccccc34)c(C(=O)O)n(CCN3CCOCC3)c12
YKL-5-124 = compound: C=CC(=O)Nc1ccc(C(=O)Nc2[nH]nc3c2CN(C(=O)N[C@H](CN(C)C)c2ccccc2)C3(C)C)cc1 [YKL-5-124]; assay: increase in dead-cell fraction, 72 h; higher = more death;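 note: breast cancer cell lines in 384-well plates, stained with Hoechst plus LIVE/DEAD far red dye and imaged, cells above an LDR intensity threshold counted dead, Hoechst-negative corpses included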
BSJ-03-123 = compound: CC(=O)c1c(C)c2cnc(Nc3ccc(N4CCN(CCOCCOCCOCCNC(=O)COc5cccc6c5C(=O)N(C5CCC(=O)NC5=O)C6=O)CC4)cn3)nc2n(C2CCCC2)c1=O [BSJ-03-123]; assay: as above
[4] = compound: CC(=O)c1c(C)c2cnc(Nc3ccc(N4CCNCC4)cn3)nc2n(C2CCCC2)c1=O; assay: as above
[5] = compound: CCN1CCN(Cc2ccc(Nc3ncc(F)c(-c4cc(F)c5nc(C)n(C(C)C)c5c4)n3)nc2)CC1; assay: as above
Neratinib/HKI272 = compound: CCOc1cc2ncc(C#N)c(Nc3ccc(OCc4ccccn4)c(Cl)c3)c2cc1NC(=O)/C=C/CN(C)C [Neratinib/HKI272]; assay: as above
[6] = compound: CCc1cnn2c(NCc3ccc[n+]([O-])c3)cc(N3CCCC[C@H]3CCO)nc12; assay: as above
LEE011/Ribociclib [7] = compound: T1, LEE011/Ribociclib; assay: as above
THZ531 = compound: CN(C)C/C=C/C(=O)Nc1ccc(C(=O)N2CCC[C@@H](Nc3ncc(Cl)c(-c4c[nH]c5ccccc45)n3)C2)cc1 [THZ531]; assay: as above
THZ1 = compound: CN(C)C/C=C/C(=O)Nc1ccc(C(=O)Nc2cccc(Nc3ncc(Cl)c(-c4c[nH]c5ccccc45)n3)c2)cc1 [THZ1]; assay: as above
Flavopiridol = compound: CN1CC[C@H](c2c(O)cc(O)c3c(=O)cc(-c4ccccc4Cl)oc23)[C@H](O)C1 [Flavopiridol]; assay: as above
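Throughout, for GR50, 72 h: breast cancer and non-malignant breast epithelial cell lines, Deep Dye Drop or Dye Drop imaging, nine half-log doses, GR normalized to time-zero plates and DMSO-only controls.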

HCC1143
GR50, 72 h [1]: 0.0151 µM
GR50, 72 h (LEE011/Ribociclib [2]): 3.65 µM
GR50, 72 h (Doxorubicin): 0.00927 µM
GR50, 72 h (Pictilisib/GDC0941): 0.978 µM
GR50, 72 h (Ceritinib/LDK378): 1.45 µM
GR50, 72 h [3]: > 10 µM
increase in dead-cell fraction (YKL-5-124; 0.001 µM): 0.0369
increase in dead-cell fraction (YKL-5-124; 0.003162 µM): 0.0319
increase in dead-cell fraction (YKL-5-124; 0.01 µM): 0.0518
increase in dead-cell fraction (YKL-5-124; 0.03162 µM): 0.0428
increase in dead-cell fraction (YKL-5-124; 0.1 µM): 0.0477
increase in dead-cell fraction (YKL-5-124; 0.3162 µM): 0.0836
increase in dead-cell fraction (YKL-5-124; 1 µM): 0.0896
increase in dead-cell fraction (YKL-5-124; 3.162 µM): 0.0668
increase in dead-cell fraction (YKL-5-124; 10 µM): 0.121
increase in dead-cell fraction (BSJ-03-123; 0.001 µM): 0.0033
increase in dead-cell fraction (BSJ-03-123; 0.003162 µM): 0.0019
increase in dead-cell fraction (BSJ-03-123; 0.01 µM): -0.0022
increase in dead-cell fraction (BSJ-03-123; 0.03162 µM): -0.0018
increase in dead-cell fraction (BSJ-03-123; 0.1 µM): 0.0104
increase in dead-cell fraction (BSJ-03-123; 0.3162 µM): 0.011
increase in dead-cell fraction (BSJ-03-123; 1 µM): 0.0065
increase in dead-cell fraction (BSJ-03-123; 3.162 µM): 0.0186
increase in dead-cell fraction (BSJ-03-123; 10 µM): 0.102
increase in dead-cell fraction ([4]; 0.0003162 µM): 0.0048
increase in dead-cell fraction ([4]; 0.001 µM): 0.0021
increase in dead-cell fraction ([4]; 0.003162 µM): -0.0047
increase in dead-cell fraction ([4]; 0.01 µM): -0.0052
increase in dead-cell fraction ([4]; 0.03162 µM): -0.0059
increase in dead-cell fraction ([4]; 0.1 µM): -0.0023
increase in dead-cell fraction ([4]; 0.3162 µM): -0.0052
increase in dead-cell fraction ([4]; 1 µM): -0.0085
increase in dead-cell fraction ([4]; 3.162 µM): 0.0036
increase in dead-cell fraction ([5]; 0.001 µM): -0.0049
increase in dead-cell fraction ([5]; 0.003162 µM): -0.0032
increase in dead-cell fraction ([5]; 0.01 µM): -0.0047
increase in dead-cell fraction ([5]; 0.03162 µM): 0.0015
increase in dead-cell fraction ([5]; 0.1 µM): -0.003
increase in dead-cell fraction ([5]; 0.3162 µM): -0.0023
increase in dead-cell fraction ([5]; 1 µM): 0.0074
increase in dead-cell fraction ([5]; 3.162 µM): 0.0254
increase in dead-cell fraction ([5]; 10 µM): 0.124
increase in dead-cell fraction (Neratinib/HKI272; 0.0003162 µM): 0.003
increase in dead-cell fraction (Neratinib/HKI272; 0.001 µM): 0.0005
increase in dead-cell fraction (Neratinib/HKI272; 0.003162 µM): 0.006
increase in dead-cell fraction (Neratinib/HKI272; 0.01 µM): 0.0143
increase in dead-cell fraction (Neratinib/HKI272; 0.03162 µM): 0.0116
increase in dead-cell fraction (Neratinib/HKI272; 0.1 µM): 0.0306
increase in dead-cell fraction (Neratinib/HKI272; 0.3162 µM): 0.0437
increase in dead-cell fraction (Neratinib/HKI272; 1 µM): 0.0748
increase in dead-cell fraction (Neratinib/HKI272; 3.162 µM): 0.261
increase in dead-cell fraction ([6]; 0.0001 µM): -0.0025
increase in dead-cell fraction ([6]; 0.0003162 µM): -0.0033
increase in dead-cell fraction ([6]; 0.001 µM): 0.0002
increase in dead-cell fraction ([6]; 0.003162 µM): -0.0039
increase in dead-cell fraction ([6]; 0.01 µM): 0.006
increase in dead-cell fraction ([6]; 0.03162 µM): 0.248
increase in dead-cell fraction ([6]; 0.1 µM): 0.258
increase in dead-cell fraction ([6]; 0.3162 µM): 0.254
increase in dead-cell fraction ([6]; 1 µM): 0.239
increase in dead-cell fraction (LEE011/Ribociclib [7]; 0.001 µM): -0.0077
increase in dead-cell fraction (LEE011/Ribociclib [7]; 0.003162 µM): 0.0012
increase in dead-cell fraction (LEE011/Ribociclib [7]; 0.01 µM): 0
increase in dead-cell fraction (LEE011/Ribociclib [7]; 0.03162 µM): 0.001
increase in dead-cell fraction (LEE011/Ribociclib [7]; 0.1 µM): 0.0077
increase in dead-cell fraction (LEE011/Ribociclib [7]; 0.3162 µM): 0.0065
increase in dead-cell fraction (LEE011/Ribociclib [7]; 1 µM): 0.0007
increase in dead-cell fraction (LEE011/Ribociclib [7]; 3.162 µM): 0.009
increase in dead-cell fraction (LEE011/Ribociclib [7]; 10 µM): 0.0365
increase in dead-cell fraction (THZ531; 0.0001 µM): 0.0046
increase in dead-cell fraction (THZ531; 0.0003162 µM): 0.0047
increase in dead-cell fraction (THZ531; 0.001 µM): 0.0003
increase in dead-cell fraction (THZ531; 0.003162 µM): 0.0002
increase in dead-cell fraction (THZ531; 0.01 µM): -0.0009
increase in dead-cell fraction (THZ531; 0.03162 µM): 0.0121
increase in dead-cell fraction (THZ531; 0.1 µM): 0.0256
increase in dead-cell fraction (THZ531; 0.3162 µM): 0.117
increase in dead-cell fraction (THZ531; 1 µM): 0.134
increase in dead-cell fraction (THZ1; 0.0001 µM): -0.0073
increase in dead-cell fraction (THZ1; 0.0003162 µM): -0.0031
increase in dead-cell fraction (THZ1; 0.001 µM): -0.0053
increase in dead-cell fraction (THZ1; 0.003162 µM): -0.0066
increase in dead-cell fraction (THZ1; 0.01 µM): 0.0051
increase in dead-cell fraction (THZ1; 0.03162 µM): 0.0382
increase in dead-cell fraction (THZ1; 0.1 µM): 0.162
increase in dead-cell fraction (THZ1; 0.3162 µM): 0.192
increase in dead-cell fraction (THZ1; 1 µM): 0.165
increase in dead-cell fraction (Flavopiridol; 0.0001 µM): -0.0098
increase in dead-cell fraction (Flavopiridol; 0.0003162 µM): -0.0008
increase in dead-cell fraction (Flavopiridol; 0.001 µM): -0.0018
increase in dead-cell fraction (Flavopiridol; 0.003162 µM): 0.0048
increase in dead-cell fraction (Flavopiridol; 0.01 µM): 0.0022
increase in dead-cell fraction (Flavopiridol; 0.03162 µM): -0.0053
increase in dead-cell fraction (Flavopiridol; 0.1 µM): 0.0185
increase in dead-cell fraction (Flavopiridol; 0.3162 µM): 0.0656
increase in dead-cell fraction (Flavopiridol; 1 µM): 0.228
